The values below come from ChEMBL document CHEMBL1201862, “PubChem BioAssay data set” (2004).

Test systems include LXFL 529; SNB-78; HOP-18; KM-20L2; M19-MEL; XF498; DMS-114; RXF 631; DMS-273.
Common to all, as to test: NCI anticancer screen, dose series, 48 h

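These data come from cells grown in 96-well plates and exposed to compound for 48 hours at five concentrations. Here, GI50 denotes the concentration required for 50% inhibition of growth.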 Active and inactive are the calls of the source. Rule as the data show it: active = GI50 up to about 1.1 µM and inactive = higher. A value given as a limit tells only on which side of the number the result lay.

With `CC(Oc1ccc2c(-c3ccccc3)cc(=O)oc2c1)C(=O)O` (stereo not given), the GI50 in the experiment on LXFL 529, in the experiment with SNB-78, with HOP-18, with KM-20L2, in the experiment on M19-MEL and in the experiment with XF498 was > 100 µM (inactive) each time. Further, the GI50 with DMS-114 is > 100 µM (inactive).
As to `Cc1nc(N)sc1C(=O)/C=C\c1ccc2c(c1)OCO2`, the GI50 in the experiment on LXFL 529, in the experiment on SNB-78, in the experiment on HOP-18, in the experiment on KM-20L2, in the experiment on M19-MEL and in the experiment on RXF 631 was > 100 µM (inactive) throughout. For the same compound, the GI50 in the experiment on XF498, in the experiment on DMS-273 and in the experiment with DMS-114 was > 100 µM (inactive) each time.
Consider `O=c1ccn([C@@H]2C[C@H](CO)C[S+]([O-])C2)c(=O)[nH]1` (stereo not given in full), for which the GI50 in the experiment with LXFL 529, in the experiment with HOP-18, in the experiment on KM-20L2, in the experiment on M19-MEL, in the experiment with DMS-273 and in the experiment with DMS-114 was > 100 µM (inactive) each time.
With `C=CC1(NS(=O)(=O)c2ccc(C)cc2)CCC(C(C)(C)C)CC1` (stereo not given), the GI50 in the experiment with LXFL 529 was 99.5 µM (inactive); in the experiment on SNB-78, 30.7 µM (inactive); in the experiment with HOP-18, 37.5 µM (inactive); in the experiment with KM-20L2 it was > 100 µM (inactive); with M19-MEL, > 100 µM (inactive); with DMS-273, 43.5 µM (inactive). Moreover, the GI50 with DMS-114 was 27 µM (inactive).
As for `COc1cc([C@@H]2c3cc4c(cc3C(N)C3COC(=O)[C@@H]32)OCO4)cc(OC)c1O` (stereo not given in full), the GI50 in the experiment on LXFL 529 was 0.117 µM (active); in the experiment on HOP-18 it was > 100 µM (inactive); in the experiment on KM-20L2, 0.176 µM (active); in the experiment with M19-MEL it was 0.334 µM (active); in the experiment with RXF 631, 0.178 µM (active); with DMS-114 it was 0.245 µM (active).
For the compound `COc1ccc(/C=C2\C(=O)N(NC(C)=O)c3ccccc32)cc1`, the GI50 in the experiment on SNB-78, with HOP-18, in the experiment on KM-20L2, in the experiment on M19-MEL, in the experiment on RXF 631 and with XF498 was > 100 µM (inactive) throughout. The GI50 with DMS-273 is 99.1 µM (inactive); in the experiment with DMS-114 it was 77.3 µM (inactive).
On to `CN(CCCCN)c1ccc2c(=O)[nH][nH]c(=O)c2c1`, for which the GI50 is > 100 µM (inactive) in the experiment with LXFL 529; > 100 µM (inactive) in the experiment on SNB-78; > 100 µM (inactive) in the experiment on HOP-18; > 10 µM (inactive) with RXF 631; > 100 µM (inactive) in the experiment on XF498; > 100 µM (inactive) in the experiment with DMS-273. Besides, the GI50 with DMS-114 was > 100 µM (inactive).
Take `COc1cc2c(cc1O)[C@@]1(Cc3ccc(OC)c(OC)c3)CCC(=O)N1CC2`: the GI50 in the experiment on LXFL 529 is > 100 µM (inactive); in the experiment with SNB-78, > 100 µM (inactive); in the experiment with HOP-18, 31.3 µM (inactive); in the experiment with KM-20L2, > 100 µM (inactive); with M19-MEL, > 100 µM (inactive); in the experiment on DMS-273, > 100 µM (inactive). The GI50 with DMS-114 is > 100 µM (inactive).
Turning to `Cc1cc(C)c(C2[C@H]3C(=O)N(c4ccc(Cc5ccc(N6C(=O)[C@@H]7ON(c8ccccc8)C(c8c(C)cc(C)cc8C)[C@@H]7C6=O)cc5)cc4)C(=O)[C@H]3ON2c2ccccc2)c(C)c1` (stereo not given in full), the GI50 with LXFL 529, in the experiment with SNB-78, in the experiment on HOP-18, with KM-20L2, in the experiment with M19-MEL and with RXF 631 was > 100 µM (inactive) in each case. Also, the GI50 in the experiment with DMS-273 and with DMS-114 was > 100 µM (inactive) in each case.
As for `COc1cccc2c1C(=O)c1c(O)c3c(c(O)c1C2=O)C[C@@](O)(C(C)=O)C[C@@H]3OC1CC([N+]([O-])(Cc2ccccc2)Cc2ccccc2)C(O)C(C)O1` (stereo not given in full), the GI50 in the experiment on LXFL 529 is 1.11 µM (active); with HOP-18, 1.58 µM (inactive); in the experiment on KM-20L2, 1.55 µM (inactive); with M19-MEL, 1.43 µM (inactive); in the experiment with RXF 631 it was 0.428 µM (active); with XF498, 1.23 µM (inactive). Also, the GI50 with DMS-114 was 1.33 µM (inactive).
Regarding `NC(CCCNc1cccc(O)c1)C(=O)O` (stereo not given), the GI50 with LXFL 529, in the experiment with SNB-78, in the experiment with HOP-18, with KM-20L2, in the experiment with M19-MEL and in the experiment on DMS-273 was > 100 µM (inactive) each time. Moreover, the GI50 in the experiment on DMS-114 is > 100 µM (inactive).
Take `CC1CCN(CCC(=O)CC(c2ccccc2)c2c(O)c3ccccc3oc2=O)CC1` (stereo not given): the GI50 in the experiment with SNB-78 was 34.4 µM (inactive); in the experiment with KM-20L2 it was > 100 µM (inactive); in the experiment with M19-MEL it was > 100 µM (inactive); in the experiment on RXF 631, > 100 µM (inactive); with XF498 it was > 100 µM (inactive); in the experiment on DMS-273 it was > 100 µM (inactive). Besides, the GI50 with DMS-114 was > 100 µM (inactive).
For `CCN(CC)CCC1CC/C(=C\c2ccc(OC)cc2)C1=O` (stereo not given), the GI50 with LXFL 529 is 58.5 µM (inactive); with SNB-78, 81.1 µM (inactive); with HOP-18, > 100 µM (inactive); in the experiment with KM-20L2 it was 30.3 µM (inactive); in the experiment with M19-MEL it was 54.8 µM (inactive); in the experiment on XF498, 49.8 µM (inactive). In addition, the GI50 is > 100 µM (inactive) in the experiment with DMS-273 and 38.6 µM (inactive) with DMS-114.
Turning to `Cc1ccc(/C=C/C(=O)CCN(C)C)cc1`, the GI50 is 19.4 µM (inactive) with LXFL 529; 28.6 µM (inactive) with SNB-78; 20.7 µM (inactive) in the experiment on HOP-18; 18.3 µM (inactive) in the experiment with KM-20L2; 19.7 µM (inactive) in the experiment on M19-MEL; 14.2 µM (inactive) with XF498. Further, the GI50 in the experiment with DMS-273 was 13 µM (inactive); in the experiment on DMS-114, 18.3 µM (inactive).
`COC(=O)C(C#N)=C1c2ccccc2Oc2ccccc21`: the GI50 in the experiment with LXFL 529 was 29.8 µM (inactive); in the experiment on SNB-78 it was 28.6 µM (inactive); with KM-20L2 it was 91.2 µM (inactive); in the experiment with M19-MEL, 60.1 µM (inactive); with XF498 it was > 100 µM (inactive); with DMS-273 it was > 100 µM (inactive). For the same compound, the GI50 in the experiment on DMS-114 is 32.7 µM (inactive).
Turning to `CC(C)(c1ccccc1)c1ccc(OC#N)cc1`, the GI50 in the experiment with LXFL 529 was > 78.3 µM (inactive); with SNB-78, > 100 µM (inactive); in the experiment with HOP-18 it was > 100 µM (inactive); in the experiment with KM-20L2 it was > 60.3 µM (inactive); with M19-MEL, > 60.1 µM (inactive); in the experiment on XF498, 44.6 µM (inactive). Also, the GI50 is 17 µM (inactive) in the experiment on DMS-273 and 28.4 µM (inactive) in the experiment on DMS-114.
On to `C=C[C@@]1(O)CCCC2=C(C(=O)OCC)CC[C@]21C`, for which the GI50 in the experiment on LXFL 529 is > 100 µM (inactive); in the experiment with HOP-18 it was 99.8 µM (inactive); with M19-MEL it was > 100 µM (inactive); in the experiment with DMS-273 it was 37.5 µM (inactive); in the experiment on DMS-114, 44 µM (inactive).
For the compound `CC(C)Cc1cc(CCC(=O)Nc2ccccc2[N+](=O)[O-])nc(NC#N)n1`, the GI50 in the experiment with LXFL 529, in the experiment on HOP-18, in the experiment with KM-20L2, with M19-MEL, with XF498 and with DMS-114 was > 100 µM (inactive) in each case.
For the compound `C[C@]1(CO)CCC[C@@]2(C)C1CC[C@H]1CC3C[C@]12CC[C@]3(C)O` (stereo not given in full), the GI50 with LXFL 529 is 2.86 µM (inactive); in the experiment with SNB-78 it was 27.1 µM (inactive); in the experiment with KM-20L2 it was > 100 µM (inactive); in the experiment with RXF 631 it was 42.3 µM (inactive); in the experiment on XF498, 47.1 µM (inactive); in the experiment with DMS-273, > 100 µM (inactive). Further, the GI50 in the experiment on DMS-114 was 40.2 µM (inactive).
For `CCOC(=O)Oc1c(OC)cc(C(=O)NC2CCc3cc(OC)c(OC)c(OC)c3-c3ccc(SC)c(=O)cc32)cc1OC` (stereo not given), the GI50 in the experiment on LXFL 529 was 0.0386 µM (active); in the experiment on SNB-78, 0.0489 µM (active); in the experiment with KM-20L2 it was 0.0853 µM (active); in the experiment with M19-MEL, 0.047 µM (active); with XF498, 0.0681 µM (active); with DMS-273, < 0.007 µM (active). Also, the GI50 with DMS-114 is 0.0261 µM (active).
For the compound `O=C1CCCN(c2ccccc2)N1`, the GI50 in the experiment with LXFL 529, in the experiment on KM-20L2, in the experiment on M19-MEL, with RXF 631, in the experiment with DMS-273 and with DMS-114 was > 100 µM (inactive) each time.
`COc1cc2c[n+](C)c3c4cc(OC)c(OC)cc4c(OCCCCCCCCOc4cc5c6cc(OC)c(OC)cc6c[n+](C)c5c5cc(OC)c(OC)cc45)cc3c2cc1OC`: the GI50 in the experiment on LXFL 529 was > 100 µM (inactive); in the experiment with SNB-78, > 100 µM (inactive); in the experiment on HOP-18, > 100 µM (inactive); in the experiment on KM-20L2, 80 µM (inactive); with M19-MEL it was 53.1 µM (inactive); in the experiment with XF498, > 100 µM (inactive). The GI50 was 20 µM (inactive) in the experiment with DMS-273 and 22.1 µM (inactive) in the experiment on DMS-114.
Turning to `O=C1c2ccccc2C(=O)c2c1cc(S(=O)(=O)O)c(O)c2O` [Alizarin Red S], the GI50 is > 100 µM (inactive) in the experiment with LXFL 529; > 100 µM (inactive) in the experiment on SNB-78; > 100 µM (inactive) in the experiment on M19-MEL; > 100 µM (inactive) in the experiment on RXF 631; 16.7 µM (inactive) in the experiment on XF498; > 100 µM (inactive) in the experiment with DMS-114.
Regarding `CN1C(=O)C(=O)c2cc3c(c4c2c1cc1ccccc14)OCO3` [CEPHARADIONE A], the GI50 is 30.8 µM (inactive) with LXFL 529; 7.83 µM (inactive) in the experiment on SNB-78; 42.9 µM (inactive) in the experiment on HOP-18; 39.4 µM (inactive) in the experiment with KM-20L2; 28.4 µM (inactive) in the experiment with M19-MEL; > 100 µM (inactive) with XF498. Besides, the GI50 with DMS-273 was 22.9 µM (inactive); with DMS-114, 31.6 µM (inactive).
